Data published in patent US8378104B2 (OSI Pharmaceuticals, LLC, priority 2010, dated 2013).
Structures can show the parent of a compound that is named as a salt.

Target: T1, TAK1-TAB1 fusion protein (Homo sapiens, UniProt O43318)
T1 construct: purchased Carna
T1 sequence (O43318 with tags, fused parts or gaps limits assumed): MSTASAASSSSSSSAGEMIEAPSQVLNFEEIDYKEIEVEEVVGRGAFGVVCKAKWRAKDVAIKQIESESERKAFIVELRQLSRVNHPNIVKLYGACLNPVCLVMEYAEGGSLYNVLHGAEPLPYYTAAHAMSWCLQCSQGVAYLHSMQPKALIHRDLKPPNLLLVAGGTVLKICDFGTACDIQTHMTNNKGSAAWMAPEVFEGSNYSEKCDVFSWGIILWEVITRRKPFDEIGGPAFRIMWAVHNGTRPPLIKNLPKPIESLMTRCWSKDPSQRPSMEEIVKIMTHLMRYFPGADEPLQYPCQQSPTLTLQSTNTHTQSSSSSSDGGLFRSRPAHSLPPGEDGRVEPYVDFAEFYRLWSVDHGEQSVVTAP
Assay: TAK1 biochemical assay (AlphaScreen, GST-MAP2K7 substrate)
Conditions: TAK1-TAB1 fusion protein, GST-MAP2K7 substrate; read-out: mean TAK1 IC50 (Col. A)

IC50 [µM]	SMILES
1 to 10	CC(=O)N1CCC(n2cc(-c3cnc(N)c4oc(-c5cccc(S(=O)(=O)N(C)C)c5)cc34)cn2)CC1 [Example 134, 3-{4-[1-(1-acetylpiperidin-4-yl)-1H-pyrazol-4-yl]-7-aminofuro[2,3-c]pyridin-2-yl}-N,N-dimethylbenzenesulfonamide]
1 to 10	CC(=O)c1ccccc1-c1cc2c(-c3cnn(C4CCN(C(C)=O)CC4)c3)cnc(N)c2o1 [Example 193, 1-(4-{4-[2-(2-acetylphenyl)-7-aminofuro[2,3-c]pyridin-4-yl]-1H-pyrazol-1-yl}piperidin-1-yl)ethanone]
1 to 10	CN(C)S(=O)(=O)Nc1cccc(-c2cc3c(-c4cnn(C5CCNCC5)c4)cnc(N)c3o2)c1 [Example 24, N′-(3-{7-amino-4-[1-(piperidin-4-yl)-1H-pyrazol-4-yl]furo[2,3-c]pyridine-2-yl}phenyl)-N,N-dimethylsulfuric diamide]
> 10	Cn1cc(-c2cnc(N)c3oc(-c4csc5cnccc45)cc23)c(C#N)n1 [Example 345, 4-(7-amino-2-thieno[2,3-c]pyridin-3-yl-furo[2,3-c]pyridin-4-yl)-1-methyl-1H-pyrazole-3-carbonitrile]
0.1 to 1	Nc1ncc(-c2cnn(CC(=O)O)c2)c2cc(-c3csc4cnccc34)oc12 [Example 296, [4-(7-amino-2-thieno[2,3-c]pyridin-3-yl-furo[2,3-c]pyridin-4-yl)-pyrazol-1-yl]-acetic acid]
> 10	CC(=O)N1CCC(n2cc(-c3cnc(N)c4oc(-c5ccc(N6CCCC6)nc5)cc34)cn2)CC1 [Example 139, 1-[4-(4-{7-amino-2-[6-(pyrrolidin-1-yl)pyridin-3-yl]furo[2,3-c]pyridin-4-yl}-1H-pyrazol-1-yl)piperidin-1-yl]ethanone]
1 to 10	COc1cc(-c2cc3c(-c4cnn(C5CCN(C(C)=O)CC5)c4)cnc(N)c3o2)ccc1N [Example 150, 1-(4-{4-[7-amino-2-(4-amino-3-methoxyphenyl)furo[2,3-c]pyridin-4-yl]-1H-pyrazol-1-yl}piperidin-1-yl)ethanone]
1 to 10	CN1CCC(n2cc(-c3cnc(N)c4oc(-c5cccc6ccsc56)cc34)cn2)CC1 [Example 57, 2-(1-benzothiophen-7-yl)-4-[1-(1-methylpiperidin-4-yl)-1H-pyrazol-4-yl]furo[2,3-c]pyridin-7-amine]
1 to 10	Nc1ncc(-c2cnn(C3CCNCC3)c2)c2cc(-c3cccc(-c4nnn[nH]4)c3)oc12 [Example 40, 4-[1-(piperidin-4-yl)-1H-pyrazol-4-yl]-2-[3-(1H-tetrazol-5-yl)phenyl]furo[2,3-c]pyridine-7-amine]
0.1 to 1	Nc1ncc(-c2cnn(CCO)c2)c2cc(-c3csc4cnccc34)oc12 [Example 319, 2-[4-(7-amino-2-thieno[2,3-d]pyridin-3-yl-furo[2,3-d]pyridin-4-yl)-pyrazol-1-yl]-ethanol]
0.1 to 1	Nc1ccc(-c2nc(-c3cc4c(-c5cnn(C6CCNCC6)c5)cnc(N)c4o3)ccc2N)nc1Cl [Example 30, 6-{7-amino-4-[1-(piperidin-4-yl)-1H-pyrazol-4-yl]furo[2,3-c]pyridine-2-yl}-6′-chloro-2,2′-bipyridine-3,5′-diamine]
0.1 to 1	CC(=O)N1CCC(n2cc(-c3cnc(N)c4oc(-c5c(C#CC(C)(C)O)sc6cnccc56)cc34)cn2)CC1 [Example 265, 1-[4-(4-{7-amino-2-[2-(3-hydroxy-3-methylbut-1-yn-1-yl)thieno[2,3-c]pyridin-3-yl]furo[2,3-c]pyridin-4-yl}-1H-pyrazol-1-yl)piperidin-1-yl]ethanone trifluoroacetate]
1 to 10	Nc1ncc(-c2cnn(CC(O)CO)c2)c2cc(-c3cccc4cnccc34)oc12 (stereo not shown) [Example 66, 3-{4-[7-amino-2-(isoquinolin-5-yl)furo[2,3-c]pyridin-4-yl]-1H-pyrazol-1-yl}propane-1,2-diol]
1 to 10	Cc1c(-c2ccccc2)oc2c(N)ncc(-c3cnn(C4CCNCC4)c3)c12 [Example 9, methyl-2-phenyl-4-[1-(piperidin-4-yl)-1H-pyrazol-4-yl]furo[2,3-c]pyridin-7-amine hydrochloride]
1 to 10	CC(=O)N1CCC(n2cc(-c3cnc(N)c4oc(-c5csc6c(=O)[nH]ccc56)cc34)cn2)CC1 [Example 257, 3-{4-[1-(1-acetylpiperidin-4-yl)-1H-pyrazol-4-yl]-7-aminofuro[2,3-c]pyridin-2-yl}thieno[2,3-c]pyridin-7(6H)-one trifluoroacetic Acid Salt]
1 to 10	COc1cccc(-c2cc3c(-c4cnn(C5CCN(C(C)=O)CC5)c4)cnc(N)c3o2)c1 [Example 161, 1-(4-{4-[7-amino-2-(3-methoxyphenyl)furo[2,3-c]pyridin-4-yl]-1H-pyrazol-1-yl}piperidin-1-yl)ethanone]
> 10	COc1ccccc1COc1cccc(-c2cc3c(-c4cnn(C5CCN(C(C)=O)CC5)c4)cnc(N)c3o2)c1 [Example 212, 1-{4-[4-(7-amino-2-{3-[(2-methoxybenzyl)oxy]phenyl}furo[2,3-c]pyridin-4-yl)-1H-pyrazol-1-yl]piperidin-1-yl}ethanone]
> 10	CC(=O)N1CCC(n2cc(-c3cnc(N)c4oc(C5=CCC6(CC5)OCCO6)cc34)cn2)CC1 [Example 408, 1-(4-{4-[7-amino-2-(1,4-dioxaspiro[4.5]dec-7-en-8-yl)furo[2,3-c]pyridin-4-yl]-1H-pyrazol-1-yl}piperidin-1-yl)ethanone]
1 to 10	CC(=O)N1CCC(n2cc(-c3cnc(N)c4oc(-c5cccc(C(F)(F)F)c5)cc34)cn2)CC1 [Example 185, 1-[4-(4-{7-amino-2-[3-(trifluoromethyl)phenyl]furo[2,3-c]pyridin-4-yl}-1H-pyrazol-1-yl)piperidin-1-yl]ethanone]
> 10	CCOC(=O)COc1cccc(-c2cc3c(-c4cnn(C5CCN(C(C)=O)CC5)c4)cnc(N)c3o2)c1 [Example 211, ethyl (3-{4-[1-(1-acetylpiperidin-4-yl)-1H-pyrazol-4-yl]-7-aminofuro[2,3-c]pyridin-2-yl}phenoxy)acetate]
0.1 to 1	Nc1ncc(-c2cnn(C3CCNCC3)c2)c2cc(-c3cccc4c3sc3ccccc34)oc12 [Example 37, 2-(dibenzo[b,d]thiophen-4-yl)-4-[1-(piperidin-4-yl)-1H-pyrazol-4-yl]furo[2,3-c]pyridine-7-amine]
0.1 to 1	Nc1ncc(-c2cnn(C3CCNCC3)c2)c2cc(-c3cccc4cn[nH]c34)oc12 [Example 45, 2-(1H-indazol-7-yl)-4-[1-(piperidin-4-yl)-1H-pyrazol-4-yl]furo[2,3-c]pyridin-7-amine]
> 10	Cn1cc(-c2cnc(N)c3oc(-c4ccccc4)cc23)cn1 [Example 56, 4-(1-methyl-1H-pyrazol-4-yl)-2-phenylfuro[2,3-d]pyridin-7-amine]
1 to 10	Nc1ncc(-c2cnn(C3CCNCC3)c2)c2cc(-c3ccccc3)oc12 [Example 2, 2-phenyl-4-[1-(piperidin-4-yl)-1H-pyrazol-4-yl]furo[2,3-c]pyridin-7-amine]

SMILES	IC50 [µM]
CC(=O)N1CCC(n2cc(-c3cnc(N)c4oc(-c5cccc(OCCC(C)C)c5)cc34)cn2)CC1 [Example 208, 1-[4-(4-{7-amino-2-[3-(3-methylbutoxy)phenyl]furo[2,3-c]pyridin-4-yl}-1H-pyrazol-1-yl)piperidin-1-yl]ethanone]	> 10
